# Data from US20030180345A1, “Compositions and methods for inhibiting islet dysfunction and autoimmune disorders” (priority 2000, published 2003).
# “Also recorded” adds a separate entry of the source.
# How the values were obtained:
# NOD mice = assay: Gestational taurine supplementation in NOD mice: diabetes onset, insulitis and endocrine pancreas development; type: in vivo
# Description: Pregnant NOD mice (maintained as in Example 13) were supplemented with 2.5% of taurine in drinking water during gestation. Pups were either sacrificed at 14 days of age, and pancreata were collected and fixed for histology as depicted in FIG. 16, or followed until glucosurea was apparent.
# islet cells [1] = assay: Islet cell proliferation with maternal dietary taurine supplementation (BrdU immunostaining); type: in vivo, Wistar rats
# Description: Adult virgin female Wistar rats were caged overnight with males and copulation was verified the next morning. Animals were maintained at 25° C. with a 10 h-14 h dark-light cycle. Pregnant rats were divided into four groups and fed one of the following isocaloric diets, either with or without taurine supplemented in the drinking water. […] The composition of the basal and low protein diets were described previously by Snoeck et a/.1990 (Biol. Neonate 57, 107-118). The diets were purchased from Hope Farms (Woerden, Holland). Animals in both the groups had free access to water at all times. Animals were divided into four groups to assess various parameters at different time periods. Females were sacrificed at 21.5 days of gestation by decapitation and fetuses were removed in order to evaluate parameters at fetal day 21.5 (F 21.5). Alternatively, animals gave birth and offspring were sacrificed at post-natal day 12, 14 or 30 (PN 12, PN 14, and PN 30, respectively). Bromodeoxyuridine (BrdU) incorporation was evaluated by immunostaining as described by […] et al., (Endocrinology 1999;140: 4861-4873).
# Fas = assay: Islet Fas immunoreactivity with dietary taurine supplementation; type: in vivo, Wistar rats; settings: post-natal day 14
# Description: Animals and diets were prepared as described in Example 8. The pancreas was removed, and the presence of Fas, Fas ligand, inducible nitric oxide synthase (iNOS) and vascular endothelial growth factor (VEGF) were evaluated in pancreatic sections using immunoreactivity.
# fetal pancreas = assay: Fetal pancreatic vascularization with taurine supplementation; type: in vivo, Wistar rats; settings: LP diet + taurine in drinking water; fetal day 21.5
# Description: Animals and diets were as described above in Example 1. The fetal pancreas was removed at day 21.5. Vascular density, expressed as a percent of area, and number of blood vessels per unit area were evaluated.
# islet cells [2] = assay: Islet cell apoptosis with maternal dietary taurine supplementation (TUNEL); type: in vivo, Wistar rats
# Description: Animals and diets were prepared, and taurine supplementation in drinking water was conducted as described in Example 7. Islet cells were cultured and treated as described in Example 1. Islet cell apoptosis was determined using the TUNEL method, as described by […] et al., (Endocrinology 1999;140: 4861-4873). Four developmental stages were evaluated, namely: fetal day 21.5 ([…].5) or post-natal day 12 (PN12), 14 (PN14) or 30 (PN30).
# fetal islet β cells = assay: SNP-induced apoptosis in cultured fetal islets (TUNEL, confocal microscopy); type: cell-based, Wistar rats; settings: for in vitro apoptotic rate: absence of SNP
# Description: Animals and Diets. Adult virgin female Wistar rats were caged overnight with males and copulation was verified the next morning. Animals were maintained at 25° C. with a 10 h-14 h dark-light cycle. Pregnant rats were divided into two groups and fed one of the following isocaloric diets: either a control diet (C) containing 20% protein or a low protein diet (LP) containing 8% protein. The composition of the diet was as described previously by Snoeck et al. 1990 (Biol. Neonate 57, 107-118). The diets were purchased from Hope Farms (Woerden, Holland). Animals in both the groups had free access to water at all times. At 21.5 days of gestation, females were sacrificed by decapitation and fetuses removed.
# Islet culture and treatment. Fetal islets were isolated as described by Mourmeaux et al. 1985 (Molecular and Cellular Endocrinology 39:237-246). Islets were cultured in 35 mm Petri-dishes (Falcon plastics, Los Angeles, Calif.) in RPMI 1640 medium (Gibco, Grand Island, N.Y., USA) with 10% Fetal Bovine Serum and antibiotics (penicillin 200 U/ml, streptomycin 0.2 mg/ml). Petri dishes were incubated at 37° C. with 5% CO2 in air. The culture medium was changed daily after the second day. On the 5th day of culture, islets were rinsed twice with serum free DME/F12 medium (1:1, v/v, Gibco, Paisley, Scotland) and subsequently incubated for 42 hours in this medium. […]
# TUNEL method for evaluating apoptosis. Apoptosis was evaluated by the TUNEL method described herein, and visualized with confocal microscopy. Cultured islets were fixed in methanol and stored at −20° C. until analysis. The tissue was then washed with phosphate buffered saline (PBS) for 3 min, and a terminal deoxynucleotidyl transferase (TdT) reaction buffer (50 μl) was added. The 50 μl of TdT solution was prepared using 10 μl of 5× concentrated buffer solution (1 mol/l potassium cacodylate; 125 mmol/l Tris-HCl, pH 6.6; 1.26 mg bovine serum albumin). Cobalt chloride (5 μl of 25 mmol/l), 0.5 μl (12.5 units) of TdT (both from Boehringer Mannheim, Germany), and 0.25 nmoles of BODIPY-FL-X-14-dUTP (Molecular Probes, Eugene, Oreg. USA) were added, along with distilled water, up to 50 μl. Islets were incubated in Petri dishes with the TdT reaction buffer for 60 min at 37° C., then rinsed twice with 15 mmol/l EDTA (pH 8.0) in PBS and once with 0.1% Triton X-100 in PBS. Then, 2 ml of PBS containing 2.5 μg/ml of propidium iodide (Molecular Probes, Eugene, Oreg. USA) was added to the dishes for 5 min. Finally, islet cells were washed with 15 mmol/l EDTA (pH 8.0). Islet cells were then double-labelled for apoptotic nuclei, showing the BODIPY-FL-dUTP label in […] and total nuclei with propidium iodide in red.
# Confocal microscopy. Staining probes were visualised through a confocal laser scanning microscopy system (MRC-1024 UV; BIO-RAD, UK) equipped with Argon ion and Krypton/Argon ion lasers. BODIPY-FL was excited at 503 nm, ethidium bromide at 510 nm, propidium iodide at 536 nm and Hoechst 33342 at 346 nm. The emissions were recorded respectively at 522/32 nm, 605/32 nm and 455/30 nm. Four to six optical sections were collected at every 15 μm through the islet. The number of BODIPY-FL-positive or ethidium bromide-positive nuclei were reported and expressed as a percentage of the total number of nuclei.
# Animals, diets, and fetal islet isolation procedures were conducted as described in Example 1.
structure (smiles),measurement,setting,value
"NCCS(=O)(=O)O [taurine, 2-aminoethylsulfonic acid]",proportion of IGF-II-immunoreactive islet cells,"NOD mice; 14 days of age, p<0.01",greater proportion
same,mean islet area,"NOD mice; 14 days of age, p<0.05",significantly smaller
same,proportion of proliferating islet cells,"NOD mice; 14 days of age, p<0.05",greater proportion
same,number of apoptotic cells in islets,"NOD mice; NOD female mice, 14 days of age, vs control animals",reduced nearly in half; also recorded: less apoptotic cells
same,survival,"NOD mice; female and male NOD mice, Log Rank and Wilcoxon tests",improved survival
same,reduction of insulitis,"NOD mice; insulitis appearing at 8 weeks, 2.5% taurine in drinking water during gestation",90%
same,insulin/glucagon ratio,"NOD mice; small islets, NOD female mice",No difference
same,percentage of PCNA positive cells (cell proliferation),"NOD mice; small islets, NOD female mice",significant increase
same,percentage of area stained for glucagon (alpha cells),"NOD mice; small islets, NOD female mice",significantly increased
same,percentage of area stained for insulin (β mass),"NOD mice; small islets, NOD female mice",significant increase
same,age by which 50% of mice became diabetic,"NOD mice; taurine treatment n=51, controls 16 weeks, p<0.001",26 weeks
same,β cell proliferation rate (BrdU incorporation),"islet cells [1]; C+Taurine, 2.5% taurine in maternal drinking water",did not significantly increase
same,islet cell proliferation rate (BrdU incorporation),"islet cells [1]; LP+Taurine, 2.5% (weight/volume) taurine in maternal drinking water",restore the proliferation rate to a level not significantly different from the control diet
same,immunoreactive Fas within islets,Fas,reduced
same,blood vessel numbers per unit area,fetal pancreas,restoring both vascularization parameters to the level of the control groups
same,vascular density (percent of area),fetal pancreas,restoring both vascularization parameters to the level of the control groups
same,islet cell apoptosis,"islet cells [2]; LP+Taurine vs control group (C), F21.5, PN12, PN14, PN30","either no difference, or a reduction in apoptosis compared to the control group"
same,islet cell apoptosis,"islet cells [2]; protein-sufficient (C) animals supplemented with taurine, post-natal days 12 and 14",reduction in apoptosis
same,reduction of SNP-induced apoptosis,"fetal islet β cells; 0.3 mmol/l taurine, SNP 100 μmol/l, LP islets",60%
same,reduction of SNP-induced apoptosis,"fetal islet β cells; 0.3 mmol/l taurine, SNP 100 μmol/l, control islets",30%
same,in vitro apoptotic rate,"fetal islet β cells; control diet (C) islets, 0.3 mmol/l taurine",1.5±0.2%
same,in vitro apoptotic rate,"fetal islet β cells; control diet (C) islets, 3 mmol/l taurine",1.4±0.3%
same,in vitro apoptotic rate,"fetal islet β cells; low protein diet (LP) islets, 0.3 mmol/l taurine",2.1±0.3%
same,in vitro apoptotic rate,"fetal islet β cells; low protein diet (LP) islets, 3 mmol/l taurine",2.1±0.4%
same,percentage of β cells positive for apoptosis,"fetal islet β cells; taurine 0.3 or 3 mmol/l, SNP 100 μmol/l, both diet groups",significantly decreased
